From ChEMBL document CHEMBL5236638, “Optimization of First-in-Class Dual-Acting FFAR1/FFAR4 Allosteric Modulators with Novel Mode of Action” (ACS Med Chem Lett, 2022)
pEC50: −log10 of the molar value. ≈ marks a conversion by molar mass, not a printed value. Calls of active or inactive are those of the source. The calls are words filed in the database; no cut-off is given here.

Tests used:
[1] = molecular target: T1, Free fatty acid receptor 4 (Homo sapiens) (UniProt Q5NUL3); assay: Agonist activity at N-terminal FLAG tagged human FFAR4 transfected in African green monkey COS-7 cells assessed as accumulation of inositol phosphate at 10 uM incubated for 90 mins by TopCount NXT counter based analysis relative to control; assay type: cell-based
T1 sequence (whole entry): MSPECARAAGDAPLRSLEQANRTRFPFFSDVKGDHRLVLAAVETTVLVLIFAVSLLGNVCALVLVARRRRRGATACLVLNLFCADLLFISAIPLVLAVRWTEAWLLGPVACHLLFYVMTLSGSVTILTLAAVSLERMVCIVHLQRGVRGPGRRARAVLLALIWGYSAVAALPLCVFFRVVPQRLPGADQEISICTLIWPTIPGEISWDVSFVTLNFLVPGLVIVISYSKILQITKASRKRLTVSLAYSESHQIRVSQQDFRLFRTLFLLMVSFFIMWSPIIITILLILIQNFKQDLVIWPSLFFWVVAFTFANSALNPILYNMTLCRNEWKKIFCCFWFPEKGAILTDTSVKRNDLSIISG

[2] = Solubility of the compound in PBS buffer at pH 7.4; assay type: physicochemical
[3] = molecular target: Free fatty acid receptor 1 (Homo sapiens, UniProt O14842); assay: Agonist activity at N-terminal FLAG tagged human FFAR1 transfected in African green monkey COS-7 cells assessed as accumulation of inositol phosphate incubated for 90 mins by TopCount NXT counter based analysis; assay type: cell-based
[4] = molecular target: T2, Free fatty acid receptor 4 (Homo sapiens, UniProt Q5NUL3); assay: Agonist activity at N-terminal FLAG tagged human FFAR4 transfected in African green monkey COS-7 cells assessed as accumulation of inositol phosphate incubated for 90 mins by TopCount NXT counter based analysis; assay type: cell-based
T2 sequence (Q5NUL3 whole entry): T1 sequence (whole entry)

[5] = Lipophilicity, logD of the compound; assay type: physicochemical; conditions: octanol/water
[6] = Metabolic stability in CD-1 mouse liver S9 fraction assessed as half-life at 2 uM measured upto 40 mins in the presence of NADPH by HPLC-MS analysis; assay type: ADME, subcellular; conditions: s9, 40 min
[7] = test system: Free fatty acid receptor 1 (Homo sapiens), O14842 [S8A]; assay: Agonist activity at N-terminal FLAG tagged human FFAR1 S8A mutant transfected in African green monkey COS-7 cells assessed as accumulation of inositol phosphate by measuring decrease in efficacy incubated for 90 mins by TopCount NXT counter based analysis relative to control; assay type: cell-based
[8] = test system: COS-7; assay: Agonist activity at N-terminal FLAG tagged human FFAR1 Y12 mutant transfected in African green monkey COS-7 cells assessed as accumulation of inositol phosphate incubated for 90 mins by TopCount NXT counter based analysis; assay type: cell-based
[9] = test system: COS-7; assay: Agonist activity at N-terminal FLAG tagged human FFAR1 E65 mutant transfected in African green monkey COS-7 cells assessed as accumulation of inositol phosphate incubated for 90 mins by TopCount NXT counter based analysis; assay type: cell-based
[10] = test system: Free fatty acid receptor 1 (Homo sapiens), O14842 [S8A]; assay: Agonist activity at N-terminal FLAG tagged human FFAR1 S8A mutant transfected in African green monkey COS-7 cells assessed as accumulation of inositol phosphate by measuring fold decrease in potency incubated for 90 mins by TopCount NXT counter based analysis; assay type: cell-based; conditions: filed as agonist
[11] = test system: Free fatty acid receptor 1 (Homo sapiens), O14842 [A83F]; assay: Agonist activity at N-terminal FLAG tagged human FFAR1 A83F mutant transfected in African green monkey COS-7 cells assessed as accumulation of inositol phosphate by measuring fold change in potency incubated for 90 mins by TopCount NXT counter based analysis; assay type: cell-based; conditions: filed as agonist
[12] = test system: COS-7; assay: Agonist activity at N-terminal FLAG tagged human FFAR1 K259 mutant transfected in African green monkey COS-7 cells assessed as accumulation of inositol phosphate incubated for 90 mins by TopCount NXT counter based analysis; assay type: cell-based
[13] = test system: COS-7; assay: Agonist activity at N-terminal FLAG tagged human FFAR1 L262 mutant transfected in African green monkey COS-7 cells assessed as accumulation of inositol phosphate incubated for 90 mins by TopCount NXT counter based analysis; assay type: cell-based
[14] = test system: COS-7; assay: Agonist activity at N-terminal FLAG tagged human FFAR1 A66 mutant transfected in African green monkey COS-7 cells assessed as accumulation of inositol phosphate incubated for 90 mins by TopCount NXT counter based analysis; assay type: cell-based

Free fatty acid receptor 1, sequence (O14842 whole entry): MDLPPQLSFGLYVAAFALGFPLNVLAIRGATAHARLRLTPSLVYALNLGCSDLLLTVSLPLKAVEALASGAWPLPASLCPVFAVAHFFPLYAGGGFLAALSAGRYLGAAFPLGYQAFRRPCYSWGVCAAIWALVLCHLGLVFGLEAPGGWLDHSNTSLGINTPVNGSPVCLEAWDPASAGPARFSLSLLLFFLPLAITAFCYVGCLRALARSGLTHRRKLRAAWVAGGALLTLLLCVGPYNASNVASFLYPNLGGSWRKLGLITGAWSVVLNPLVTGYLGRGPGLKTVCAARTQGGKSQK
Free fatty acid receptor 1 (Homo sapiens), O14842 [A83F], sequence (O14842 whole entry A83F): as the sequence (O14842 whole entry) above, with A83F counted along it
Free fatty acid receptor 1 (Homo sapiens), O14842 [S8A], sequence (O14842 whole entry S8A): as the sequence (O14842 whole entry) above, with S8A counted along it

## Cc1ccc(Nc2nc(N)nc(COc3cccc(N4CCCC4=O)c3)n2)cc1Cl
[1]; filed as agonist
  Emax: 50%
[2]
  solubility kinetic: 28 µM (≈ 11.9 µg/mL)
[3]
  pEC50: 6.09
[4]
  pEC50: 6.23

## Cc1cc(OCc2nc(N)nc(NC3(Cc4cccc(Cl)c4)CC3)n2)cc(N2CCCC2=O)c1
[2]
  solubility kinetic: 23 µM (≈ 11 µg/mL)
[5]
  logD: 3.82
[3]
  pEC50: 7.21
[6]
  t1/2: 0.7 min

## COC(CNc1nc(N)nc(COc2cc(C)cc(N3CCCC3=O)c2)n1)c1cccc(Cl)c1 (centres undefined)
[1]
  Emax: 32%
[2]
  solubility kinetic: 36 µM (≈ 17.4 µg/mL)
[5]
  logD: 3.52
[3]
  pEC50: 7.82
[6]
  t1/2: 2 min
[4]
  pEC50: 7.92

## Cc1cc(OCc2nc(N)nc(NCCc3cccc4c3OC(F)(F)O4)n2)cc(N2CCCC2=O)c1
[2]
  solubility kinetic: 13 µM (≈ 6.48 µg/mL)
[5]
  logD: 3.42
[6]
  t1/2: 0.8 min

## Cc1cc(OCc2nc(N)nc(NCC(C)c3cccc(Cl)c3)n2)cc(N2CCCC2=O)c1 (centres undefined)
[1]
  Emax: 33%
[2]
  solubility kinetic: 14 µM (≈ 6.54 µg/mL)
[5]
  logD: 3.93
[3]
  pEC50: 8.22
[6]
  t1/2: 0.8 min
[4]
  pEC50: 8.00

## Cc1cc(OCc2nc(N)nc(NCCc3cc(Cl)ccc3Cl)n2)cc(N2CCCC2=O)c1
[1]
  Emax: 30%
[2]
  solubility kinetic: 19 µM (≈ 9.26 µg/mL)
[5]
  logD: 3.46
[3]
  pEC50: 9.00
[6]
  t1/2: 1.9 min
[7]
  Efficacy: 35%
[4]
  pEC50: 8.70
[8]
  Activity: inactive
[9]
  Activity: inactive
[10]
  fold change (FC): 10
[11]
  fold change (FC): 2
[12]
  Activity: inactive
[13]
  Activity: inactive
[14]
  Activity: inactive

## Cc1cc(OCc2nc(N)nc(NCC(c3cccc(Cl)c3)N3CCCC3)n2)cc(N2CCCC2=O)c1 (centres undefined)
[2]
  solubility kinetic: 294 µM (≈ 153 µg/mL)
[5]
  logD: 2.79
[3]
  pEC50: 6.21
[6]
  t1/2: 3 min

## Cc1cc(OCc2nc(N)nc(NCCc3cccc(Cl)c3)n2)cc(N2CCCC2=O)c1
[1]; filed as agonist
  Emax: 43%
[2]
  solubility kinetic: 11 µM (≈ 4.98 µg/mL)
[5]
  logD: 3.77
[3]
  pEC50: 8.52
[6]
  t1/2: 2.3 min
[4]
  pEC50: 8.22

## Cc1ccc(Nc2nc(N)nc(COc3ccc4c(C)cc(=O)oc4c3)n2)cc1Cl
[1]; filed as agonist
  Emax: 45%
[2]
  solubility kinetic: < 2 µM
[3]
  pEC50: 6.85
[4]
  pEC50: 6.82

## Cc1cc(OCc2nc(N)nc(NCCc3cccc(OC(F)F)c3)n2)cc(N2CCCC2=O)c1
[1]
  Emax: 28%
[3]
  pEC50: 8.30
[4]
  pEC50: 8.00

## Cc1ccc(Nc2nc(N)nc(COc3cccc(N4CCCCC4=O)c3)n2)cc1Cl
[1]; filed as agonist
  Emax: 66%
[3]
  pEC50: 4.65
[4]
  pEC50: 4.78

## COc1ccc(Cl)cc1CCNc1nc(N)nc(COc2cc(C)cc(N3CCCC3=O)c2)n1
[1]
  Emax: 29%
[3]
  pEC50: 7.27
[4]
  pEC50: 7.28

## Cc1cc(OCc2nc(N)nc(NCCC3CCCCC3(F)F)n2)cc(N2CCCC2=O)c1 (centres undefined)
[2]
  solubility kinetic: 55 µM (≈ 25.3 µg/mL)
[5]
  logD: 3.53
[6]
  t1/2: 0.8 min

## Cc1cc(OCc2nc(N)nc(NCCc3c(F)cccc3F)n2)cc(N2CCCC2=O)c1
[1]; filed as agonist
  Emax: 46%
[3]
  pEC50: 8.52
[4]
  pEC50: 8.05

## Cc1cc(OCc2nc(N)nc(NCCc3ccccc3C)n2)cc(N2CCCC2=O)c1
[1]
  Emax: 35%
[3]
  pEC50: 7.96
[4]
  pEC50: 7.77

## Cc1cc(OCc2nc(N)nc(NCCc3cccc(F)c3)n2)cc(N2CCCC2=O)c1
[1]
  Emax: 35%
[2]
  solubility kinetic: 84 µM (≈ 36.7 µg/mL)
[5]
  logD: 3.32
[3]
  pEC50: 7.30
[6]
  t1/2: 1.1 min
[4]
  pEC50: 7.54

## Cc1cc(OCCCS(C)(=O)=O)cc(C)c1-c1cccc(COc2ccc3c(c2)OC[C@H]3CC(=O)O)c1
[11]
  fold change (FC): 500

## Cc1cc(OCc2nc(N)nc(NCCc3ccccc3OC(F)(F)F)n2)cc(N2CCCC2=O)c1
[1]
  Emax: 29%
[3]
  pEC50: 7.70
[4]
  pEC50: 7.43

## CCc1ccc(Nc2nc(N)nc(COc3ccc4c(C)cc(=O)oc4c3)n2)cc1Cl
[1]; filed as agonist
  Emax: 48%
[3]
  pEC50: 6.80
[4]
  pEC50: 6.25

## Cc1cc(OCc2nc(N)nc(NCCc3ccc(Cl)c(Cl)c3)n2)cc(N2CCCC2=O)c1
[1]
  Emax: 23%
[3]
  pEC50: 7.80
[4]
  pEC50: 7.26

## Cc1cc(OCc2nc(N)nc(NCCc3c(C)cccc3C)n2)cc(N2CCCC2=O)c1
[1]; filed as agonist
  Emax: 44%
[3]
  pEC50: 7.60
[4]
  pEC50: 7.14

## Cc1cc(OCc2nc(N)nc(NCCc3cccc(Cl)c3Cl)n2)cc(N2CCCC2=O)c1
[1]
  Emax: 31%
[3]
  pEC50: 8.52
[4]
  pEC50: 8.05

## Cc1cc(OCc2nc(N)nc(Nc3ccc(C)c(Cl)c3)n2)cc(N2CCCC2=O)c1
[1]; filed as agonist
  Emax: 50%
[3]
  pEC50: 7.70
[4]
  pEC50: 6.22

## Cc1cc(OCc2nc(N)nc(NCCc3cccc(C#N)c3)n2)cc(N2CCCC2=O)c1
[1]
  Emax: 17%
[3]
  pEC50: 6.08
[4]
  pEC50: 6.26

## COc1ccc(CCNc2nc(N)nc(COc3cc(C)cc(N4CCCC4=O)c3)n2)cc1
[1]
  Emax: 34%
[3]
  pEC50: 5.83
[4]
  pEC50: 6.42

## COc1ccc(F)cc1CCNc1nc(N)nc(COc2cc(C)cc(N3CCCC3=O)c2)n1
[1]
  Emax: 30%
[3]
  pEC50: 6.33
[4]
  pEC50: 6.87

## Cc1cc(OCc2nc(N)nc(NCCc3cc(F)ccc3F)n2)cc(N2CCCC2=O)c1
[1]
  Emax: 36%
[3]
  pEC50: 7.80
[4]
  pEC50: 8.30

## Cc1cc(OCc2nc(N)nc(NCCc3cc(Cl)cc(Cl)c3)n2)cc(N2CCCC2=O)c1
[1]; filed as agonist
  Emax: 49%
[3]
  pEC50: 8.40
[4]
  pEC50: 8.15

## Cc1cc(OCc2nc(N)nc(NCCc3ccc(C)cc3C)n2)cc(N2CCCC2=O)c1
[1]
  Emax: 37%
[3]
  pEC50: 7.15
[4]
  pEC50: 7.03

## Cc1cc(OCc2nc(N)nc(NCCc3ccccc3Cl)n2)cc(N2CCCC2=O)c1
[1]
  Emax: 33%
[3]
  pEC50: 8.22
[4]
  pEC50: 8.52

## Cc1cc(Nc2nc(N)nc(COc3ccc4c(C)cc(=O)oc4c3)n2)ccc1Cl
[1]; filed as agonist
  Emax: 48%
[3]
  pEC50: 6.62
[4]
  pEC50: 6.22

## Cc1c(Cl)cc(Nc2nc(N)nc(COc3ccc4c(C)cc(=O)oc4c3)n2)cc1Cl
[1]; filed as agonist
  Emax: 68%
[3]
  pEC50: 6.22
[4]
  pEC50: 5.90

## Cc1cc(OCc2nc(N)nc(NCCc3ccccc3N3CCOCC3)n2)cc(N2CCCC2=O)c1
[1]
  Emax: 30%
[2]
  solubility kinetic: 119 µM (≈ 59.9 µg/mL)
[5]
  logD: 2.93
[6]
  t1/2: 0.9 min
[4]
  pEC50: 7.09

## Cc1cc(=O)oc2cc(OCc3nc(N)nc(Nc4ccc(C(C)C)cc4)n3)ccc12
[1]; filed as agonist
  Emax: 75%
[3]
  pEC50: 6.34
[4]
  pEC50: 5.92
